Experimental data as given in patent publication US20250282754A1, “BICYCLIC COMPOUNDS AND THEIR USE AS PEST CONTROL AGENTS” (Pl Industries Ltd., priority 2022, published 2025).

Columns and labels:
Type in all cases: in vivo
Bemisia tabaci = Bemisia tabaci leaf dip test (brinjal leaves, whitefly adults); settings: foliar, dead and moribund whitefly adults 72 h after release, compared to untreated controls, read-out: percent mortality
Procedure: The leaf dip method was used for testing, wherein the required quantity of the compound was weighed and dissolved in a tube containing a solvent solution. The tube was put on a vortex at 2000 rpm for proper mixing and then diluted with a 0.01% Triton-X solution to the desired test concentration. Brinjal leaves were dipped in the compound solution for 10 seconds; shade dried for 20 min and then placed, with the abaxial side of the leaf up, on 4 ml of a solidified 1% agar-agar solution in respective container caps. Known numbers of freshly emerged whitefly adults were collected, using a modified aspirator, and released into a perforated container in which the cap containing the treated leaf was placed. The containers were kept in a plant growth chamber at a temperature of 25° C. and relative humidity of 70%. Observations on dead, moribund and alive adults were recorded 72 h after the release. Percent mortality was calculated by combining dead and moribund adults and comparing the result to the one of the untreated controls. The compounds 1 9 11 18 25 28 29 30 31

Myzus persicae = Myzus persicae leaf dip test (capsicum leaves, third instar nymphs); settings: foliar, dead and moribund third instar nymphs 72 h after release, compared to untreated controls, read-out: percent mortality
Procedure: The leaf dip method was used for testing, wherein the required quantity of the compound was weighed and dissolved in a tube containing a solvent solution. The tube was put on a vortex at 2000 rpm for proper mixing and then diluted with a 0.01% Triton-X solution to the desired test concentration. Capsicum leaves were dipped in the compound solution for 10 seconds, shade dried for 20 min and then placed, with the abaxial side of the leaf up, in single cells of a bio-assay tray containing 4 ml of a solidified 1% agar-agar solution. Known numbers of third instar nymphs of Myzus persicae, collected in petri plates, were released into the cell with the treated leaf and the cell was covered with a perforated lid for better aeration. The trays were kept in a plant growth chamber at a temperature of 25° C. and a relative humidity of 70%. Observations on dead, moribund and alive nymphs were recorded 72 h after the release. Percent mortality was calculated by combining dead and moribund nymphs and comparing the result with the one of the untreated controls. The compounds

Nilaparvata lugens = Nilaparvata lugens seedling dip test (paddy seedlings, third instar nymphs); settings: dead and moribund third instar nymphs 72 h after release, compared to untreated controls, read-out: percent mortality
Procedure: The seedling dip method was used for testing, wherein the required quantity of the compound was weighed and dissolved in a tube containing a solvent solution. The tube was put on a vortex at 2000 rpm for proper mixing and then diluted with a 0.01% Triton-X solution to the desired test concentration. Paddy seedlings were dipped in the compound solution for 10 seconds, shade dried for 20 min and then the seedlings were placed in glass test tubes with the roots kept in water. 15 third instar nymphs of Nilaparvata lugens were released into each test tube and the tubes were kept in a plant growth chamber at a temperature of 25° C. and relative humidity of 75%. Observations on dead, moribund and alive nymphs were recorded 72 h after the release. Percent mortality was calculated by combining dead and moribund nymphs and comparing the result to the one of the untreated controls. The compounds

SMILES | mortality at 300 ppm (Bemisia tabaci) [%] | mortality at 300 ppm (Myzus persicae) [%] | mortality at 300 ppm (Nilaparvata lugens) [%]
CS(C)(=O)=Nc1ccc2nn(-c3cccnc3)cc2n1 [Compound 224] | ≥ 70 | ≥ 70 | –
CS(=O)(=Nc1ccc2nn(-c3cccnc3)cc2n1)C1CCCCC1 (stereo not drawn) [Compound 216] | ≥ 70 | ≥ 70 | –
CC(C)S(C)(=O)=Nc1cnc2nn(-c3cccnc3)cc2c1 (stereo not drawn) [Compound 156] | – | ≥ 70 | –
COc1nn(-c2ccc3nn(-c4cccnc4)cc3c2)c(=O)n1C [Compound 110, 5-methoxy-4-methyl-2-(2-(pyridin-3-yl)-2H-indazol-5-yl)-2,4-dihydro-3H-1,2,4-triazol-3-one] | ≥ 70 | ≥ 70 | –
CC1(CS(=N)(=O)c2ccc3nn(-c4cncc(F)c4)cc3c2)COC1 (stereo not drawn) [Compound 484, (2-(5-fluoropyridin-3-yl)-2H-indazol-5-yl)(imino)((3-methyloxetan-3-yl)methyl)-λ^6-sulfanone] | – | ≥ 70 | –
CC(C)S(C)(=O)=Nc1cccc2nn(-c3cncc(F)c3)cc12 (stereo not drawn) [Compound 90] | – | ≥ 70 | –
CC(=O)N=S(=O)(CCCF)c1ccc2nn(-c3cncc(F)c3)cc2c1 (stereo not drawn) [Compound 487] | – | ≥ 70 | –
CS(C)(=O)=Nc1ccc(Cl)c2nn(-c3cccnc3)cc12 [Compound 217] | – | ≥ 70 | –
CCS(=O)(CC)=Nc1ccc2nn(-c3cccnc3)cc2n1 [Compound 249] | ≥ 70 | ≥ 70 | –
O=S(CCC(F)(F)F)(=Nc1ccc2nn(-c3ccnnc3)cc2c1)c1ccc(F)cc1 (stereo not drawn) [Compound 70] | – | ≥ 70 | –
CCCS(=O)(CC)=Nc1cccc2nn(-c3cncc(F)c3)cc12 (stereo not drawn) [Compound 138] | – | ≥ 70 | –
CCN=S(=O)(c1ccc2nn(-c3cncc(F)c3)cc2c1)C(CC)CC (stereo not drawn) [Compound 492] | – | ≥ 70 | –
CCS(=O)(CC)=Nc1cccc2nn(-c3cncc(F)c3)cc12 [Compound 89] | – | ≥ 70 | –
CCC(C)S(=N)(=O)c1ccc2nn(-c3cncc(F)c3)cc2c1 (stereo not drawn) [Compound 479, sec-butyl(2-(5-fluoropyridin-3-yl)-2H-indazol-5-yl)(imino)-λ^6-sulfanone] | ≥ 70 | ≥ 70 | –
N=S(=O)(CC1CCCO1)c1ccc2nn(-c3cccnc3)cc2c1 (stereo not drawn) [Compound 569, imino(2-(pyridin-3-yl)-2H-indazol-5-yl)((tetrahydrofuran-2-yl)methyl)-λ^6-sulfanone] | – | ≥ 70 | –
CCS(=N)(=O)c1ccc2nn(-c3cncc(F)c3)cc2c1 (stereo not drawn) [Compound 460, ethyl(2-(5-fluoropyridin-3-yl)-2H-indazol-5-yl)(imino)-λ^6-sulfanone] | – | ≥ 70 | –
CCC(C)S(=O)(=NC(C)=O)c1ccc2nn(-c3cncc(F)c3)cc2c1 (stereo not drawn) [Compound 486] | – | ≥ 70 | –
CC(C)S(=O)(CCC(F)(F)F)=Nc1ccc2nn(-c3cccnc3)cc2c1 (stereo not drawn) [Compound 99] | – | ≥ 70 | –
CCCS(C)(=O)=Nc1ccc2nn(-c3cncnc3)c(Cl)c2c1 (stereo not drawn) [Compound 180] | – | ≥ 70 | –
CCN=S(=O)(c1ccc2nn(-c3cccnc3)cc2c1)C(C)C (stereo not drawn) [Compound 383] | ≥ 70 | ≥ 70 | –
CC(C)S(C)(=O)=Nc1ccc(Cl)c2nn(-c3cccnc3)cc12 (stereo not drawn) [Compound 218] | ≥ 70 | ≥ 70 | –
CCS(C)(=O)=Nc1ccc2nn(-c3cccnc3)cc2n1 (stereo not drawn) [Compound 248] | ≥ 70 | ≥ 70 | –
CS(C)(=O)=Nc1ccc2nn(-c3cncc(F)c3)cc2n1 [Compound 306] | ≥ 70 | ≥ 70 | –
CCC(CC)S(=O)(=NC(C)=O)c1ccc2nn(-c3cncc(F)c3)cc2c1 (stereo not drawn) [Compound 485] | – | ≥ 70 | –
CCC(CC)S(=N)(=O)c1ccc2nn(-c3cncc(F)c3)cc2c1 (stereo not drawn) [Compound 480, (2-(5-fluoropyridin-3-yl)-2H-indazol-5-yl)(imino)(pentan-3-yl)-λ^6-sulfanone] | ≥ 70 | ≥ 70 | –
CCCS(=O)(CC)=Nc1cccc2nn(-c3cccnc3)cc12 (stereo not drawn) [Compound 136] | – | ≥ 70 | –

SMILES | mortality at 300 ppm (Bemisia tabaci) [%] | mortality at 300 ppm (Myzus persicae) [%] | mortality at 300 ppm (Nilaparvata lugens) [%]
N=S(=O)(CC(F)(F)F)c1ccc2nn(-c3cncnc3)cc2c1 (stereo not drawn) [Compound 458, imino(2-(pyrimidin-5-yl)-2H-indazol-5-yl)(2,2,2-trifluoroethyl)-λ^6-sulfanone] | ≥ 70 | ≥ 70 | –
CCC(C)S(=O)(=Nc1ccc2nn(-c3cccnc3)cc2c1)C(C)C (stereo not drawn) [Compound 291] | ≥ 70 | ≥ 70 | –
CC(=O)N=S(=O)(c1ccc2nn(-c3cccnc3)cc2c1)C1CCCC1 (stereo not drawn) [Compound 581] | – | ≥ 70 | –
CCC(C)S(=O)(=Nc1ccc2nn(-c3cccnc3)cc2n1)C(C)C (stereo not drawn) [Compound 287] | ≥ 70 | ≥ 70 | –
CS(=N)(=O)c1ccc2nn(-c3cncnc3)cc2c1 (stereo not drawn) [Compound 470, imino(methyl)(2-(pyrimidin-5-yl)-2H-indazol-5-yl)-λ^6-sulfanone] | ≥ 70 | – | ≥ 70
O=S(CC1CC1)(=NC1CC1)c1ccc2nn(-c3cncnc3)cc2c1 (stereo not drawn) [Compound 446] | ≥ 70 | – | ≥ 70
N=S(=O)(c1ccc2nn(-c3cccnc3)cc2c1)C1CCCCC1 (stereo not drawn) [Compound 560, cyclohexyl(imino)(2-(pyridin-3-yl)-2H-indazol-5-yl)-λ^6-sulfanone] | – | ≥ 70 | –
CCN=S(=O)(c1ccc2nn(-c3cncc(F)c3)cc2c1)C(C)CC (stereo not drawn) [Compound 490] | – | ≥ 70 | –
CCCCS(=O)(=NCC)c1ccc2nn(-c3cccnc3)cc2c1 (stereo not drawn) [Compound 390] | – | ≥ 70 | –
Cc1cncc(-n2cc3cc(N=S(C)(C)=O)ccc3n2)c1 [Compound 168] | – | ≥ 70 | –
N#CCCCS(=N)(=O)c1ccc2nn(-c3cccnc3)cc2c1 (stereo not drawn) [Compound 564, 4-(2-(pyridin-3-yl)-2H-indazole-5-sulfonimidoyl)butanenitrile] | – | ≥ 70 | –
CCN=S(C)(=O)c1ccc2nn(-c3cncnc3)cc2c1 (stereo not drawn) [Compound 474] | ≥ 70 | – | ≥ 70
CC(C)S(=O)(CCC(F)(F)F)=Nc1cccc2nn(-c3cccnc3)cc12 (stereo not drawn) [Compound 102] | – | ≥ 70 | –
CCN=S(=O)(c1ccc2nn(-c3cccnc3)cc2c1)C1CCC1 (stereo not drawn) [Compound 567] | – | ≥ 70 | –
CCS(=O)(CC)=Nc1ccc2nn(-c3cncnc3)cc2c1 [Compound 11] | ≥ 70 | – | ≥ 70
COc1nn(-c2ccc3nn(-c4cncc(F)c4)cc3c2)c(=O)n1Cc1ccccc1F [Compound 355, 4-(2-fluorobenzyl)-2-(2-(5-fluoropyridin-3-yl)-2H-indazol-5-yl)-5-methoxy-2,4-dihydro-3H-1,2,4-triazol-3-one] | ≥ 70 | – | ≥ 70
CCOc1nn(-c2ccc3nn(-c4cccnc4)cc3c2)c(=O)n1Cc1ccccc1F [Compound 358, 5-ethoxy-4-(2-fluorobenzyl)-2-(2-(pyridin-3-yl)-2H-indazol-5-yl)-2,4-dihydro-3H-1,2,4-triazol-3-one] | ≥ 70 | – | ≥ 70
N=S(=O)(c1ccc2nn(-c3cncc(F)c3)cc2c1)C1CCC1 (stereo not drawn) [Compound 488, cyclobutyl(2-(5-fluoropyridin-3-yl)-2H-indazol-5-yl)(imino)-λ^6-sulfanone] | – | ≥ 70 | –
CN=S(=O)(CC1CC1)c1ccc2nn(-c3cncnc3)cc2c1 (stereo not drawn) [Compound 447] | ≥ 70 | – | ≥ 70
CCS(=O)(=NC(C)=O)c1ccc2nn(-c3cncnc3)cc2c1 (stereo not drawn) [Compound 456] | – | ≥ 70 | –
CCN=S(=O)(CCCF)c1ccc2nn(-c3cncc(F)c3)cc2c1 (stereo not drawn) [Compound 491] | – | ≥ 70 | –
N=S(=O)(c1ccc2nn(-c3cccnc3)cc2c1)C1CCCC1 (stereo not drawn) [Compound 558, cyclopentyl(imino)(2-(pyridin-3-yl)-2H-indazol-5-yl)-λ^6-sulfanone] | – | ≥ 70 | –
CCCS(=O)(=NC(C)=O)c1ccc2nn(-c3cncc(F)c3)cc2c1 (stereo not drawn) [Compound 483] | – | ≥ 70 | –
CS(C)(=O)=Nc1cccc2nn(-c3cccnc3)cc12 [Compound 72] | ≥ 70 | – | ≥ 70
CCCS(=O)(=Nc1ccc2nn(-c3cccnc3)cc2c1)C(C)C (stereo not drawn) [Compound 256] | – | ≥ 70 | –
